Measured values from patent US20240358862A1, “Synthesis Method and Application of a Near-infrared Probe GGa-ICG specific binding to PSCA” (Guangzhou Shiyun Biotechnology Co., Ltd, priority 2022, published 2024).

Key:
[1] = Fluorescence depth detection (tissue penetration depth); type: physicochemical; details: excited at 780 nm, signals detected after 5 minutes
Experimental: The tissue penetration depth of ICG, GGa-ICG, and ssDNA-ICG was detected using a fluorescence spectrometer at depths of 1, 2, 3, 4, and 5 mm. Fluorescence was excited at a wavelength of 780 nm and fluorescence signals were detected after 5 minutes to compare signal-to-noise ratios and observe the fluorescence signal penetration depth.

[2] = Fluorescence stability detection; type: physicochemical
Experimental: Stability testing was divided into two groups: 1) stability testing under excitation wavelength and 2) stability testing of GGa-ICG under visible light. Excitation wavelength of 780 nm (GGa-ICG, ssDNA-ICG, and ICG) and visible light were used to excite the fluorescence probe GGa-ICG. Fluorescence detection was performed, and the changes in fluorescence intensity were recorded using a fluorescence spectrophotometer.

cells = test: MTT experiment (in vitro cell toxicity); type: cell-based; details: 2-20 times the Kd value concentration
Experimental: MTT assay was used to measure the in vitro cell toxicity in a 96-well plate. In brief, cells (6×10^3 cells per well) were treated with GGa-ICG (at concentrations of 0, 20, 200 nM, 10 μM, etc.), free drugs, or hybrids in the culture medium (RPMI1640 without FBS, unless otherwise specified; 37° C.; 5% CO2). […]

PSCA on PC-3 cells = molecular target: T1, PSCA on PC-3 cells (Homo sapiens, UniProt O43653); test: Antibody competition experiment by flow cytometry; type: cell-based; details: 200 nM GGa-ICG, 10 μg/mL anti-PSCA-FITC
T1 construct: Membrane proteins of PC-3 cells were extracted; endogenous in cells; host or cells: PC-3
T1 sequence (O43653 12-83): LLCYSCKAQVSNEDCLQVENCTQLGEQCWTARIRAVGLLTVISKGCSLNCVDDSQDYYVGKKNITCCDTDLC
Experimental: A suspension of 5×10^5 cells of PC-3 or other cell lines was incubated with 200 nM of GGa-ICG or anti-PSCA-FITC antibody in 100 μL of binding buffer on ice for 30 minutes, washed again, and subjected to flow cytometry analysis (FACS Calibur instrument, BD Biosciences): 10,000 events were collected for each sample. ICG-labeled ssDNA-ICG was used as a negative control. For the antibody competition experiment, 5×10^5 cells were incubated with 200 nM of GGa-ICG in binding buffer on ice for 30 minutes, followed by the addition of 10 μg/mL of anti-PSCA-FITC antibody and further incubation for 30 minutes as the GGa-ICG blocking group. 10 μg/mL of anti-PSCA-FITC was incubated in binding buffer on ice for […], followed by the addition of 200 nM of GGa-ICG and further incubation for 30 minutes as the anti-PSCA-FITC blocking group. Both 200 nM of GGa-ICG and 10 μg/mL of anti-PSCA-FITC antibody were incubated on ice for 30 minutes as the combined group. After washing, the cells were resuspended and subjected to flow cytometry analysis.
To confirm the results of the mass spectrometry, the location of GGa-ICG and PSCA on PC-3 cells was first examined. To achieve this, PC-3 cells were incubated with […].

[3] = Toxicity test of GGa-ICG (serum enzymatic testing); type: in vivo; details: serum of nude mice 72 hours after injection
Experimental: Blood serum was collected from nude mice injected with GGa-ICG for 72 hours and subjected to enzymatic testing.

PC tissues = test: GGa-ICG staining of PC clinical tissue sections (confocal fluorescence microscopy); details: 200 nM, paraffin sections
Experimental: Methods: Paraffin tissue blocks were provided by the Pathology Department of the Third Affiliated Hospital of Sun Yat-sen University (Guangzhou, China). Tissue sections were deparaffinized twice in xylene for 10 min each time, followed by rehydration in a series of graded ethanol (100%, 95%, and 70%) and rinsed in deionized water. After washing in PBS for 5 min, the sections were incubated in TE buffer (10 mM Tris, 1 mM EDTA, pH=8.0, per liter of ddH2O) and boiled in a microwave oven until boiling, then kept at 95° C. for 15 min to retrieve the antigen. The sections were allowed to cool naturally to room temperature and then washed three times with fresh PBS. After histological processing, tissue sections were incubated with binding buffer containing 20% FBS and 0.1 mg/mL Herring Sperm DNA at room temperature for 60 min, followed by incubation with 200 nM GGa-ICG in the binding buffer at 4° C. for 60 min. The sections were washed three times with fresh PBS, dehydrated, and sealed with Antifade PVA mounting medium. Finally, stained sections were imaged using a spinning disk confocal fluorescence microscope (Olympus IX71, Japan). Adjacent sections were stained with […] HE staining. Fluorescence signals were observed using a 40× objective lens (NA 0.90, UPLSAPO, Olympus, Japan). Images were analyzed using FV10-ASW 3.1 software.

[4] = test system: tumor cell lines with elevated PSCA expression; test: Flow cytometry binding to other tumor cell lines; type: cell-based
Description: PSCA is expressed at high levels in various tumors such as prostate cancer, bladder cancer, kidney cancer, breast cancer, colon cancer, lung cancer, pancreatic cancer, etc. Using the aforementioned method, T24 bladder cancer cells, Cakil renal cancer cells, MDA-MB468 breast cancer cells, HT29 colon cancer cells, PANC1 pancreatic cancer cells, NCI-H460 lung cancer cells, and other cell lines were stained with GGa-ICG for flow cytometry analysis. Positive cell lines were used to establish subcutaneous transplantation tumor models to detect the visualization of GGa-ICG in vivo.

PSCA [5] = molecular target: T2, PSCA (Homo sapiens, UniProt O43653); test: Binding site of GGa-ICG on PSCA protein; details: sequence ALQPGTALLCYSCKA
T2 sequence (O43653 12-83): T1 sequence (O43653 12-83)

[6] = Water solubility compared to ICG; type: physicochemical
PSCA [7] = molecular target: T2, PSCA; test: Pull-down assay; type: binding; set-up: Membrane proteins of PC-3 cells were extracted; endogenous in cells; host or cells: PC-3; details: PC-3 membrane proteins, Western blotting with anti-PSCA antibody
Experimental: Membrane proteins of PC-3 cells were extracted and incubated with agarose beads, agarose-conjugated GGa-ICG, or an agarose-conjugated library. The resulting pull-down mixture containing proteins was analyzed by Western blotting using a PSCA-specific antibody. The captured proteins were analyzed by SDS-PAGE gel and Coomassie blue staining, followed by Western blotting using an anti-PSCA antibody.

In the case of “GGa-ICG: near-infrared probe: PSCA-binding nucleic acid aptamer GGa linked at 3′ to an ICG derivative dye (DNA TGCCACTACAGCTGGTTCGGTTTGGTGACTTCGTTCTTCGTTGTGGT; 3'-ICG dye, further chemistry not given here)”, the penetration depth [1] is reported as roughly 6 mm, the “time after which fluorescence was extinguished” value ([2]; after excitation at 780 nm) is reported as 1 h and the “fluorescence quenching under visible light excitation” value ([2]; visible light, during the detection time) is reported as “did not exhibit fluorescence quenching”. The “cell inhibition in MTT experiment” value (cells) was “no significant cell inhibition”, the “relationship with PSCA antibody in flow cytometry” value (PSCA on PC-3 cells) was “competitive relationship” and the “in vivo toxicity (serological test)” value [3] was “did not show in vivo toxicity”. For the same substance, the “binding rate with PC tissues” value (PC tissues) was 82.5%, the “fluorescence signal in PC and metastatic tissues” value (PC tissues) was “Strong fluorescence signals” and the “fluorescence signal in normal tissues” value (PC tissues) was “No fluorescence signal”. For the same substance, the “binding to tumor cell lines with elevated PSCA expression” value [4] was “could bind”, the “binding site on PSCA protein (amino acids)” value (PSCA [5]) was 14-28 and the “water solubility compared to existing ICG” value [6] was “improved”. For the same substance, the “pull-down of PSCA” value (PSCA [7]) was “easily pulled down”.
